# In ChEMBL document CHEMBL4145602, “Cyclic Peptidic Mimetics of Apollo Peptides Targeting Telomeric Repeat Binding Factor 2 (TRF2) and Apollo Interaction” (ACS Med Chem Lett, 2018):
# Peptide text beside a SMILES is read from it.
# Biological target: T1, Telomeric repeat-binding factor 2 (Homo sapiens, UniProt Q15554)
# T1 sequence (Q15554 whole entry): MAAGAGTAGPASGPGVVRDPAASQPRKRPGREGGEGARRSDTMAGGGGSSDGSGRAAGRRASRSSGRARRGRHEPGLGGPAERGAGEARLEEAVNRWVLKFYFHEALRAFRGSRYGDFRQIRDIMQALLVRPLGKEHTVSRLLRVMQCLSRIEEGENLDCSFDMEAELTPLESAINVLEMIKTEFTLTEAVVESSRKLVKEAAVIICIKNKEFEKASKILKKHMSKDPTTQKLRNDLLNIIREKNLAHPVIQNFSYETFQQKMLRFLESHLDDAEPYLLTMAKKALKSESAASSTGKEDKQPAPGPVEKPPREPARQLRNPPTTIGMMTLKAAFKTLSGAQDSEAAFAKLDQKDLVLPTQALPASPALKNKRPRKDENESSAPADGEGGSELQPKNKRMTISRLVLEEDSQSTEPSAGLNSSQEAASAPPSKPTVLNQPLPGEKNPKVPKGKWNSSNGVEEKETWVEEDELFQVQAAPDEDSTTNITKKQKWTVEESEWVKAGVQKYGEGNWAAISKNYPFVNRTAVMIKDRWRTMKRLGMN
# Assay: Displacement of 5-((2R,6S,9S,12S,15S,18S,21S,24S)-3-((S)-2-((S)-1-amino-3-methyl-1-oxobutan-2-ylcarbamoyl)pyrrolidine-1-carbonyl)-15-(4-aminobutyl)-2-hydroxy-12-(4-hydroxybenzyl)-6,9,18,24-tetraisobutyl-21-methyl-5,8,11,14,17,20,23,26,29-nonaoxo-4,7,10,13,16,19,22,25,28-nonaazatetratriacontan-34-ylcarbamoyl)-2-(6-hydroxy-3-oxo-3H-xanthen-9-yl)benzoic acid from TRF2 TRFH domain (unknown origin) after 30 mins by fluorescence polarization assay
row,Ki,Structure (SMILES)
1,2.2 µM,CC(C)C[C@H](NC(=O)[C@H](C)NC(=O)[C@@H](N)CC(C)C)C(=O)N[C@@H](CCCCN)C(=O)N[C@@H](Cc1ccc(O)cc1)C(=O)N[C@@H](CC(C)C)C(=O)N[C@@H](CC(C)C)C(=O)N[C@H](C(=O)N1CCC[C@H]1C(=O)N[C@H](C(=O)O)C(C)C)[C@@H](C)O (H-LALKYLLTPV-OH)
2,26.8 µM,CC(C)C[C@H](NC(=O)[C@H](Cc1ccc(O)cc1)NC(=O)[C@H](CCCCN)NC(=O)[C@@H](N)CC(C)C)C(=O)N[C@@H](CC(C)C)C(=O)N[C@H](C(=O)N1CCC[C@H]1C(=O)N[C@H](C(=O)O)C(C)C)[C@@H](C)O (H-LKYLLTPV-OH)
3,> 500 µM,CC(C)C[C@H](NC(=O)[C@@H](N)CC(C)C)C(=O)N[C@H](C(=O)N1CCC[C@H]1C(=O)N[C@H](C(N)=O)C(C)C)[C@@H](C)O (H-LLTPV-NH2)
